Data reported in ChEMBL document CHEMBL5291721, “A preclinical secondary pharmacology resource illuminates target-adverse drug reaction associations of marketed drugs” (Nat Commun, 2023).

Key:
Mu-type opioid receptor = Mu-type opioid receptor (Homo sapiens, UniProt P35372); assay: biochemical; assay type: functional
[1] = biological target: 5-hydroxytryptamine receptor 2A (Homo sapiens, UniProt P28223); assay type: functional, cell-based
[2] = biological target: Sodium-dependent serotonin transporter (Homo sapiens, UniProt P31645)
Sequence of Sodium-dependent serotonin transporter (P31645 whole entry): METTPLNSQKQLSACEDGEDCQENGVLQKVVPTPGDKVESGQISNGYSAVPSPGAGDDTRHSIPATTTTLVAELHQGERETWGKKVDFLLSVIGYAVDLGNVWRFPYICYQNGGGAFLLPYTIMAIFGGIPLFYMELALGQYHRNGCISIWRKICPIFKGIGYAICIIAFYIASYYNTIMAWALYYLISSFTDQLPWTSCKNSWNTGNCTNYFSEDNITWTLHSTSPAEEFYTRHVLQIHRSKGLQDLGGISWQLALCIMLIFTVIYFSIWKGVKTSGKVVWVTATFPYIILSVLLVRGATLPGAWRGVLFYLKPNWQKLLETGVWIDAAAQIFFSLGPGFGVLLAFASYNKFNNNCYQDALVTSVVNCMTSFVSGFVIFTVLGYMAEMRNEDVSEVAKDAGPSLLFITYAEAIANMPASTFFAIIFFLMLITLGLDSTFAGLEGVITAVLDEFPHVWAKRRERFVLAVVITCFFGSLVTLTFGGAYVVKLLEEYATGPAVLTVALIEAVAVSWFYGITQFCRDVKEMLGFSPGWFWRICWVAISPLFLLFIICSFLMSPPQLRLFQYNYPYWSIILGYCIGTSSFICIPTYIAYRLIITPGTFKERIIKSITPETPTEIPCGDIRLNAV

Androgen receptor = biological target: T1, Androgen receptor (Rattus norvegicus, UniProt P15207); assay type: functional
T1 sequence (P15207 whole entry): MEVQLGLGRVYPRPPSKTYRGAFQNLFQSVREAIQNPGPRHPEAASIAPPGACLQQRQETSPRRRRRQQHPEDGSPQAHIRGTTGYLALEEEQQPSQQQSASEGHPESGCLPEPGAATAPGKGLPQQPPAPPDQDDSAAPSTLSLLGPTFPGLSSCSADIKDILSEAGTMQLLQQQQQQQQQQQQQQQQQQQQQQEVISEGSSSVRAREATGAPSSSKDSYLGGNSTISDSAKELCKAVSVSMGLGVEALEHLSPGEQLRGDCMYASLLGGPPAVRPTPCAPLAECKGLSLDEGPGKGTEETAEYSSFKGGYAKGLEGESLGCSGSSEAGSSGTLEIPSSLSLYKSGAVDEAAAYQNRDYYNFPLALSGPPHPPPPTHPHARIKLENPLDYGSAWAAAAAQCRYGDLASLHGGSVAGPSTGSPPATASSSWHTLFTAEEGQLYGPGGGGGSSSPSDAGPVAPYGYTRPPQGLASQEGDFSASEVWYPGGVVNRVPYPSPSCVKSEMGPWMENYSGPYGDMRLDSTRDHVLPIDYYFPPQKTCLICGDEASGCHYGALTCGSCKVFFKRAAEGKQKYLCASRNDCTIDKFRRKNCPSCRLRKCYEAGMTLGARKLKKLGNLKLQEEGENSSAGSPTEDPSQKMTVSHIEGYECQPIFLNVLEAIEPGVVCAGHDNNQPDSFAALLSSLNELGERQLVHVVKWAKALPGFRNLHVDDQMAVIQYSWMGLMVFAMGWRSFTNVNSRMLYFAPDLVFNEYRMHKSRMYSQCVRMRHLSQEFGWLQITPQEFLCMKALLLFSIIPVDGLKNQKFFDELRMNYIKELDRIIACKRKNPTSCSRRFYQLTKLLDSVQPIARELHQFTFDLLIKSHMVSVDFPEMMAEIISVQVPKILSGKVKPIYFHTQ

[3] = biological target: Gamma-aminobutyric acid receptor subunit alpha-1/alpha-2/beta-2/gamma-2 (Homo sapiens, UniProt P14867+P18507+P47869+P47870); assay type: functional, cell-based
Sequence of Gamma-aminobutyric acid receptor subunit alpha-1/alpha-2/beta-2/gamma-2 (P14867 whole entry): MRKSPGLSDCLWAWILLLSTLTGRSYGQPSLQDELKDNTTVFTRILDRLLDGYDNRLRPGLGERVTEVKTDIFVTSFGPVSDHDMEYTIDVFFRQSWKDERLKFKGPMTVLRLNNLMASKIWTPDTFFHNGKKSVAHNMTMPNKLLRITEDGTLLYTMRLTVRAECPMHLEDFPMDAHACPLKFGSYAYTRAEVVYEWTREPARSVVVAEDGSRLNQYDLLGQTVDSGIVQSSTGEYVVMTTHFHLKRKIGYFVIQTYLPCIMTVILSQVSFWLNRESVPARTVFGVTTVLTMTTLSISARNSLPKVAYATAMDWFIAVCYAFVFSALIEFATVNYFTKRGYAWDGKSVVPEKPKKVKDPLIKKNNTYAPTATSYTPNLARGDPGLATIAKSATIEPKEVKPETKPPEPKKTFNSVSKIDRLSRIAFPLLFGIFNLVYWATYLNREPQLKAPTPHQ
Sequence of Gamma-aminobutyric acid receptor subunit alpha-1/alpha-2/beta-2/gamma-2 (P47870 whole entry): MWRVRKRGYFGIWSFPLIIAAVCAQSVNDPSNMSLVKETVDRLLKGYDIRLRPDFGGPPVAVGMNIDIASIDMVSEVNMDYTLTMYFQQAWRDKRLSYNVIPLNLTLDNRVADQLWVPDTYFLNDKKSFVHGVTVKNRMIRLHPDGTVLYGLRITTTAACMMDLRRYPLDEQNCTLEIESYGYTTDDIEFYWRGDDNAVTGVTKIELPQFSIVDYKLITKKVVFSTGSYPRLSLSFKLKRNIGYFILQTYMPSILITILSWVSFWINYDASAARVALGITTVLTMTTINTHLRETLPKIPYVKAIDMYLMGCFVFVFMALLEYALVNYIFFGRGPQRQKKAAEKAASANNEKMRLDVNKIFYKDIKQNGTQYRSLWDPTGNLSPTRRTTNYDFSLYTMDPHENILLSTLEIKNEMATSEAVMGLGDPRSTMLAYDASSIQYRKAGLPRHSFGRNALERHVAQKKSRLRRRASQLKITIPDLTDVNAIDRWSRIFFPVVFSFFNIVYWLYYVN
Sequence of Gamma-aminobutyric acid receptor subunit alpha-1/alpha-2/beta-2/gamma-2 (P18507 whole entry): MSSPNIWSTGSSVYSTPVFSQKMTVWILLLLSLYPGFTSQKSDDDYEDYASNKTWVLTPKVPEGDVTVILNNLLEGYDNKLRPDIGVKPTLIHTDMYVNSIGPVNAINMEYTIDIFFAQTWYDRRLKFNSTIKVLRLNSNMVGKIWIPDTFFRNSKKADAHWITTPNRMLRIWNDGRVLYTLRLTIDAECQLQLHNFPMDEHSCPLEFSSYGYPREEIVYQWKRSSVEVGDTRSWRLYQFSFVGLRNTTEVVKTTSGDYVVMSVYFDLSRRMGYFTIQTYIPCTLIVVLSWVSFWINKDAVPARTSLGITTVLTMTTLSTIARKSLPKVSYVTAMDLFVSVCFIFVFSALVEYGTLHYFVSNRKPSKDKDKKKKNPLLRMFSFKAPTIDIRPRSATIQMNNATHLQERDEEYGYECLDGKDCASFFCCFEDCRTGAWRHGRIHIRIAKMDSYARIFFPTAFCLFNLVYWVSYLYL
Sequence of Gamma-aminobutyric acid receptor subunit alpha-1/alpha-2/beta-2/gamma-2 (P47869 whole entry): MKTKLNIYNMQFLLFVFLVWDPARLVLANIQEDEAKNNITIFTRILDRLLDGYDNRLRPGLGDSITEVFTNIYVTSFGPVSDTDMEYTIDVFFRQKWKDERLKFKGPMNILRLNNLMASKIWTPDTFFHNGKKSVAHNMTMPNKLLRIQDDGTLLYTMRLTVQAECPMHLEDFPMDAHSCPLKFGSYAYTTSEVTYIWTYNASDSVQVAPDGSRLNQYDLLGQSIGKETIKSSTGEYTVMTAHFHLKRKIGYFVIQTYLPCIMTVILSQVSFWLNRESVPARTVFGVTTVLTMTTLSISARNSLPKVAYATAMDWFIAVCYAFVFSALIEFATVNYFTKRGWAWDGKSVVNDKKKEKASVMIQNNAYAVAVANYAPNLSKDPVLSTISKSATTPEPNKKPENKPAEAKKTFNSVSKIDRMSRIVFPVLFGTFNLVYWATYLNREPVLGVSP

[4] = biological target: T2, Muscarinic acetylcholine receptor M2 (Homo sapiens, UniProt P08172)
T2 sequence (P08172 whole entry): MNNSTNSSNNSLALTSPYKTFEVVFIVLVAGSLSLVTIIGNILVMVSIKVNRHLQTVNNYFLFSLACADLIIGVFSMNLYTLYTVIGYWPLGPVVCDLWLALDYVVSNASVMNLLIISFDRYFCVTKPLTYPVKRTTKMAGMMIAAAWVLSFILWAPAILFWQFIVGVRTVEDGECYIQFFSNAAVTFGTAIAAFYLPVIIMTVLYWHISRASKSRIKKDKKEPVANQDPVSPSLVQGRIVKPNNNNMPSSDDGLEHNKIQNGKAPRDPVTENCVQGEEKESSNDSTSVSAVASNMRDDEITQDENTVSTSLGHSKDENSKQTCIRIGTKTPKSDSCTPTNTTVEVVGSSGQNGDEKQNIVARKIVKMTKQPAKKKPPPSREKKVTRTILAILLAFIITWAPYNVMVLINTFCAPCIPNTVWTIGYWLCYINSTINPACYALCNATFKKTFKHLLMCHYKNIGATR

[5] = biological target: T3, Endothelin receptor type B (Homo sapiens, UniProt P24530)
T3 sequence (P24530 whole entry): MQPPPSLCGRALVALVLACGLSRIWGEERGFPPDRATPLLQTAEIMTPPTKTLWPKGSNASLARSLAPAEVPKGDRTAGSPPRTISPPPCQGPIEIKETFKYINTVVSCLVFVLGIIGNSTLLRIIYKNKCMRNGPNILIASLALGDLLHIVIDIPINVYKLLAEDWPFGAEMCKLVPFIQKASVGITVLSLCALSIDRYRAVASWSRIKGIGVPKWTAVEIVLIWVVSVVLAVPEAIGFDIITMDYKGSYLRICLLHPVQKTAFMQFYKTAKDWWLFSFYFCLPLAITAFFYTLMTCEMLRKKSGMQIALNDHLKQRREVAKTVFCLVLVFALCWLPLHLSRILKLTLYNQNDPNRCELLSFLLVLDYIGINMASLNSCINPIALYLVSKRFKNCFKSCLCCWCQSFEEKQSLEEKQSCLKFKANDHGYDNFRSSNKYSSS
Further: assay procedure not described here.

Sequence of Mu-type opioid receptor (P35372 whole entry): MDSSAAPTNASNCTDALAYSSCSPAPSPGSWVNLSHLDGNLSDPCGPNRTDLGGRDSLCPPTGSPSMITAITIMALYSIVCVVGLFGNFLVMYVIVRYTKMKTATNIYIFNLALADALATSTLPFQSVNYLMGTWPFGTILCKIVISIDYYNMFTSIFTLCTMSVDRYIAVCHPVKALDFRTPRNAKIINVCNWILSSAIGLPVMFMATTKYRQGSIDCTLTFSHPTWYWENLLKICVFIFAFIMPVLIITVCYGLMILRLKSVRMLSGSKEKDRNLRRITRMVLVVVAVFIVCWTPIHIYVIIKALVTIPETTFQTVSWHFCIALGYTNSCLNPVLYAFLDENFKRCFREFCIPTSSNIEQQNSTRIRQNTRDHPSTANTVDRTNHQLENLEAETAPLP
Sequence of 5-hydroxytryptamine receptor 2A (P28223 whole entry): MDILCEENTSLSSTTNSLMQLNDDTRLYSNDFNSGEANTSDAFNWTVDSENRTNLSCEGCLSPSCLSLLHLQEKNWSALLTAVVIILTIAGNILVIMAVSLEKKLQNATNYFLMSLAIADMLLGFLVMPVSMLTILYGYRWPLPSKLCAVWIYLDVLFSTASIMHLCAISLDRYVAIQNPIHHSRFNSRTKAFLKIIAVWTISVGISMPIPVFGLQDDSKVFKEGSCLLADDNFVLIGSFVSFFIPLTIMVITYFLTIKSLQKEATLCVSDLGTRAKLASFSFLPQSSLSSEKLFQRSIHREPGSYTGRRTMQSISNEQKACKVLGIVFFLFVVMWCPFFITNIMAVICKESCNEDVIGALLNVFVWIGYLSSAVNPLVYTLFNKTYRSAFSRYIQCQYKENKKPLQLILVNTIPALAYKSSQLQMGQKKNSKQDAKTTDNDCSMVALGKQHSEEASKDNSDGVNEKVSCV

## CC(/C=C1\SC(=S)N(CC(=O)O)C1=O)=C\c1ccccc1
Mu-type opioid receptor
  AC50: > 30 µM

## O=C1CN2Cc3c(ccc(Cl)c3Cl)N=C2N1 [ANAGRELIDE]
[1]
  AC50: > 30 µM
[2]
  AC50: > 30 µM

## CNCC[C@@H](Oc1ccccc1C)c1ccccc1 [ATOMOXETINE]
Androgen receptor
  AC50: > 30 µM
Mu-type opioid receptor
  AC50: 18 µM

## CO/N=C(\C(=O)N[C@@H]1C(=O)N2C(C(=O)O)=C(COC(N)=O)CS[C@H]12)c1ccco1 [CEFUROXIME]
[1]
  AC50: > 30 µM
Mu-type opioid receptor
  AC50: > 30 µM
[3]
  AC50: > 30 µM
[2]
  AC50: > 30 µM

## [H]/N=C(\N/C(=N/[H])NCCCCCCNC(=N)NC(=N)Nc1ccc(Cl)cc1)Nc1ccc(Cl)cc1 [CHLORHEXIDINE]
[1]
  AC50: 1.83 µM
Mu-type opioid receptor
  AC50: > 10 µM
[2]
  AC50: 1 µM

## Clc1cccc(Cl)c1N=C1NCCN1 [CLONIDINE]
[4]
  AC50: > 10 µM
[5]
  AC50: > 30 µM

## CN1C[C@H](C(=O)N[C@]2(C)O[C@@]3(O)[C@@H]4CCCN4C(=O)[C@H](Cc4ccccc4)N3C2=O)C[C@@H]2c3cccc4[nH]cc(c34)C[C@H]21 [DIHYDROERGOTAMINE]
[4]
  AC50: > 10 µM
[5]
  AC50: > 30 µM

## CCC(=O)O[C@@H](O[P@](=O)(CCCCc1ccccc1)CC(=O)N1C[C@H](C2CCCCC2)C[C@H]1C(=O)O)C(C)C [FOSINOPRIL]
[1]
  AC50: > 30 µM
Mu-type opioid receptor
  AC50: > 30 µM
[3]
  AC50: > 30 µM

## Nc1nc(O)c2ncn(COC(CO)CO)c2n1 [GANCICLOVIR]
Mu-type opioid receptor
  AC50: > 30 µM

## Cc1cnc(NC(=O)C2=C(O)c3ccccc3S(=O)(=O)N2C)s1 [MELOXICAM]
[4]
  AC50: > 10 µM
[5]
  AC50: > 30 µM

## CC(=O)/N=c1/sc(S(N)(=O)=O)nn1C [METHAZOLAMIDE]
[1]
  AC50: > 10 µM
Mu-type opioid receptor
  AC50: > 30 µM
[2]
  AC50: > 10 µM

## CC[C@@H](CO)NC(=O)[C@@H]1C=C2c3cccc4[nH]cc(c34)C[C@H]2N(C)C1 [METHYLERGONOVINE]
Androgen receptor
  AC50: 18 µM
Mu-type opioid receptor
  AC50: > 30 µM

## CC(=O)Oc1ccccc1C(=O)Nc1ncc([N+](=O)[O-])s1 [NITAZOXANIDE]
[1]
  AC50: 15 µM
Mu-type opioid receptor
  AC50: > 30 µM
[2]
  AC50: 6.3 µM

## CNCCC=C1c2ccccc2CCc2ccccc21 [NORTRIPTYLINE]
[4]
  AC50: 0.632 µM
Mu-type opioid receptor
  AC50: > 30 µM

## CN(C)c1cc(CNCC(C)(C)C)c(O)c2c1C[C@H]1C[C@H]3[C@H](N(C)C)C(O)=C(C(N)=O)C(=O)[C@@]3(O)C(O)=C1C2=O [OMADACYCLINE]
Androgen receptor
  AC50: > 30 µM
[1]
  AC50: > 30 µM
[4]
  AC50: 4.25 µM
Mu-type opioid receptor
  AC50: > 30 µM
[3]
  AC50: > 30 µM
[2]
  AC50: 11 µM

## COc1ccnc(C[S+]([O-])c2nc3ccc(OC(F)F)cc3[nH]2)c1OC (stereo not drawn) [PANTOPRAZOLE]
[4]
  AC50: > 10 µM
[5]
  AC50: > 30 µM

## COc1ccc(Cc2nccc3cc(OC)c(OC)cc23)cc1OC [PAPAVERINE]
Androgen receptor
  AC50: > 30 µM
Mu-type opioid receptor
  AC50: > 30 µM

## CNC[C@H](O)c1cccc(O)c1 [PHENYLEPHRINE]
[1]
  AC50: > 30 µM
[4]
  AC50: > 10 µM
Mu-type opioid receptor
  AC50: > 30 µM
[5]
  AC50: > 30 µM
[2]
  AC50: > 10 µM

## O=C(Nc1c(Cl)cncc1Cl)c1ccc(OC(F)F)c(OCC2CC2)c1 [ROFLUMILAST]
Androgen receptor
  AC50: > 30 µM
[1]
  AC50: > 30 µM
Mu-type opioid receptor
  AC50: > 30 µM
[2]
  AC50: > 30 µM

## CC(C)N(CCCCOCC(=O)NS(C)(=O)=O)c1cnc(-c2ccccc2)c(-c2ccccc2)n1 [SELEXIPAG]
Androgen receptor
  AC50: > 30 µM
[1]
  AC50: 16 µM
Mu-type opioid receptor
  AC50: > 30 µM
[2]
  AC50: > 30 µM

## CCCCNc1ccc(C(=O)OCCN(C)C)cc1 [TETRACAINE]
[4]
  AC50: > 10 µM
[5]
  AC50: > 30 µM

## Cn1c(=O)c2[nH]cnc2n(C)c1=O [THEOPHYLLINE]
[4]
  AC50: > 10 µM
[5]
  AC50: > 30 µM

## CN1CCN(CCCN2c3ccccc3Sc3ccc(S(=O)(=O)N(C)C)cc32)CC1 [THIOPROPERAZINE]
[1]
  AC50: 5.8 µM
Mu-type opioid receptor
  AC50: > 30 µM
[3]
  AC50: > 30 µM

## CC1(C)O[C@@H]2[C@@H](CO[C@@]3(COS(N)(=O)=O)OC(C)(C)O[C@@H]23)O1 [TOPIRAMATE]
[4]
  AC50: > 10 µM
[5]
  AC50: > 30 µM
[2]
  AC50: > 10 µM

## Cc1cc(CC(=O)O)n(C)c1C(=O)c1ccc(Cl)cc1 [ZOMEPIRAC]
[1]
  AC50: > 30 µM
Mu-type opioid receptor
  AC50: > 30 µM
[2]
  AC50: > 30 µM
